Literature values as cited in paper PMC2898477, “High-quality crystals of human haematopoietic prostaglandin D synthase with novel inhibitors” (2010).
pIC50: −log10 of the molar value.

Molecular target: T1, haematopoietic prostaglandin D synthase (H-PGDS) (Homo sapiens, UniProt O60760)
T1 construct: gene HPGDS
Assay: co-crystallization and X-ray diffraction of the complex ([…] Å, P1); IC50 cited from Aritake et al. […]
Assay type: biochemical

T1 sequence (O60760 whole entry): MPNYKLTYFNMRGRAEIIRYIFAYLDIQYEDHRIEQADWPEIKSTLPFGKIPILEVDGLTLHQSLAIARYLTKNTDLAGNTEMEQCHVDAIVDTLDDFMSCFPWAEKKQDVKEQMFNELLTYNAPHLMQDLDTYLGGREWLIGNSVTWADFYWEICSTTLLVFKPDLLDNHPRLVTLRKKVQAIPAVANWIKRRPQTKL

- pIC50: 5.23
Structure (SMILES): c1ccc(C(OC2CCN(CCCc3nnn[nH]3)CC2)c2ccccc2)cc1 [HQL-79, 4-benzhydryloxy-1-[3-(1H-tetrazol-5-yl)-propyl]-piperidine]
